According to US7998965B2, “Glutamate aggrecanase inhibitors” (Wyeth LLC, priority 2005, dated 2011):
Where two headings read alike, the source gives them in different places.

Columns and labels:
[1] = target: T1, purified recombinant human Aggrecanase-1 (rAgg1) (Homo sapiens, UniProt O75173); assay: In vitro fluorescence screen for Aggrecanase-1 inhibitors; type: biochemical; details: read-out: Agg1 IC50
T1 sequence (O75173 213-837): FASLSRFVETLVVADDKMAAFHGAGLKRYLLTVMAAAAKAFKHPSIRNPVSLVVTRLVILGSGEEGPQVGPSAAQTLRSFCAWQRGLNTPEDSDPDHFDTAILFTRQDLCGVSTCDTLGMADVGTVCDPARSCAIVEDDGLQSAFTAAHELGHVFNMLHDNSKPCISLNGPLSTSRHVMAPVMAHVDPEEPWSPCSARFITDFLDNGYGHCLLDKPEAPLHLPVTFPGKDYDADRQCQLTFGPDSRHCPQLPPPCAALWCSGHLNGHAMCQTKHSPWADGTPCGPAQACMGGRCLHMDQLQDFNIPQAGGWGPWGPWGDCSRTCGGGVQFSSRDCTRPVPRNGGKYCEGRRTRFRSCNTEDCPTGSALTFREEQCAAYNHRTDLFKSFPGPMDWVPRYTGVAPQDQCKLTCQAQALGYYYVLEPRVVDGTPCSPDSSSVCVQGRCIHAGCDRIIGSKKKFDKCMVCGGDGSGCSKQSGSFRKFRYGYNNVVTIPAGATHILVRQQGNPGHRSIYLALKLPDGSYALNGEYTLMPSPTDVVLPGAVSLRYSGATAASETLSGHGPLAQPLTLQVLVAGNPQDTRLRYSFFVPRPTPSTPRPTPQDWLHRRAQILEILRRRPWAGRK

[2] = target: T2, purified recombinant human Aggrecanase-2 (Ag2t-Phe628-Strep) (Homo sapiens, UniProt Q9UNA0); assay: In vitro fluorescence screen for Aggrecanase-2 inhibitors; type: biochemical; details: read-out: Agg 2 IC50
T2 construct: the form used is denoted as Ag2t-Phe628-Strep (MW=41,737)
T2 sequence (Q9UNA0 262-628): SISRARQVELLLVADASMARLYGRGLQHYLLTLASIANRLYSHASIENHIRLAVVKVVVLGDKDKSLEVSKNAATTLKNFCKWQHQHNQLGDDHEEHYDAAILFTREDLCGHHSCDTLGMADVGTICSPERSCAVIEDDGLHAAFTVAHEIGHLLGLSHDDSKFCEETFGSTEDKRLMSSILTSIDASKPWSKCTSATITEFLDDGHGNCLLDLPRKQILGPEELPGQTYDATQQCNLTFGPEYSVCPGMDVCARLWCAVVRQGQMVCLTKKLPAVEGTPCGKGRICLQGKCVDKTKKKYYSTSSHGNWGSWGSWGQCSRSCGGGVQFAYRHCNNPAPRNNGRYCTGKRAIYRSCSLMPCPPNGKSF

[3] = target: T3, recombinant human catalytic domain of MMP-13 (Homo sapiens, UniProt P45452); assay: In vitro fluorescence assay of MMP-13 activity; type: biochemical
T3 construct: catalytic domain of MMP-13 (165 amino acids, residues 104-268, 19 kDa)

[4] = tested on: bovine articular cartilage treated with Interleukin 1 alpha (IL-1α); assay: Bovine articular cartilage explant cultures: inhibition of degradation of proteoglycan; type: cell-based; details: inhibitory effect expressed as percentage, concentration not printed
Text: This in vitro procedure was used to evaluate the effect and relative potencies of small molecule compounds to inhibit the degradation of proteoglycan in articular cartilage treated with Interleukin 1 alpha (IL-1α). Treatment of articular cartilage with IL 1α induces expression of a cascade of enzymes that initiates cartilage matrix degradation. This assay was utilized to select small molecule compounds that inhibit the enzyme activity and protects cartilage matrix degradation.
Articular cartilage: bovine metacarpal joints were disinfected with 10% Wescodyne followed by 70% ethanol. 6 mm articular cartilage discs were prepared and rinsed once in PBS and medium, respectively. The discs were cultured in a stirring flask with serum-free medium for 5 days for equilibrium with one medium change. Small molecule compounds: stock solutions of test small molecule compounds (usually at 5 mg/ml) were prepared in DMSO. Working solutions were diluted with DMSO and generally ranged from 0.1 μg/ml to 10 ug/ml. The DMSO stocks were stored at […]. Articular cartilage explant culture medium: DMEM, 2 mM glutamax, 100 U/ml of antibiotic and antimycotic, 50 μg/ml ascorbate and 10 mM Hepes (pH-7.0). Proteoglycan content-Dimethyl methylene blue (DMMB) solution: […] DMMB, 10 ml 100% ethanol, 29.5 ml of 1M NaOH, 3.5 ml of 98% formic acid and water to 1 L. Chondroitin sulphate sodium salt: 1.56-200 ug/ml serial dilutions.
For the explant culture, cartilage discs were cultured in serum-free medium for 48 h or more. Discs were weighed and transferred to a 96-well plate, 1 disc per-well. 0.2 ml of medium containing 5 ng/ml of IL-1 and different concentrations of compounds were added to each well, with 3 wells allocated for each treatment. The medium was collected at days 1, 2, & 3 and replaced accordingly.
For the DMMB assay, conditioned medium (CM) samples were diluted with medium. 10 ul of each standard or diluted sample was added in duplicate into a 96-well-plate and 200 μl of DMMB solution was added into each well. Absorbance at 520 nm was measured for each well. Proteoglycan contents in CM were calculated daily.
The proteoglycan contents are expressed as ug per mg of cartilage. The inhibitory effect of the compounds is expressed as percentage. (See, Tortorella, M. D. et al., Science 1999, 284, 1664-1666).

recombinant human MMP-2 = target: T4, recombinant human MMP-2 (Homo sapiens, UniProt P08253); assay: In vitro fluorescence assay of MMP-2 activity
T4 sequence (P08253 110-660): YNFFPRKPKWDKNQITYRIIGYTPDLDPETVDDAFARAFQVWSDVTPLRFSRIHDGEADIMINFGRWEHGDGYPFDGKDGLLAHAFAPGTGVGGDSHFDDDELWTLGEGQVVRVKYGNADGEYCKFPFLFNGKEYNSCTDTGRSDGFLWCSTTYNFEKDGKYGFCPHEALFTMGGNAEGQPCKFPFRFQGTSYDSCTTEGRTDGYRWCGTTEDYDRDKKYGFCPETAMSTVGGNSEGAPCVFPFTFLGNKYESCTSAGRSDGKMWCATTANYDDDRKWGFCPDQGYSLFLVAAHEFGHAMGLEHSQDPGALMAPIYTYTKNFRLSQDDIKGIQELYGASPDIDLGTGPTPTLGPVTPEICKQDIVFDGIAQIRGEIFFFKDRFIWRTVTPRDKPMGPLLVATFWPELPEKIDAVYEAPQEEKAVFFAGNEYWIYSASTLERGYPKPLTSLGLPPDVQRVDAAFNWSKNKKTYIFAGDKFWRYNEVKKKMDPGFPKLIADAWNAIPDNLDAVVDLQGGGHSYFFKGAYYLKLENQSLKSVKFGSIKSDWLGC
Procedure: A continuous assay was used in which the substrate is a synthetic peptide containing a fluorescent group (7-methoxycoumarin; Mca), which is quenched by energy transfer to a 2,4-dinitrophenyl group. […] The source of enzyme in the assay was the recombinant human MMP-2 (66 kDa; Oncogene Research Products (catalog number PF023 from Calbiochem)). The substrate used was the peptide Mca-PQGL-(3-[2,4-dinitrophenyl]-L-2,3-diaminopropionyl)-AR-OH. The assay buffer consisted of 50 mM Hepes (pH 7.4), 100 mM NaCl, 5 mM CaCl2, and 0.005% Brij-35. […] The plates were then incubated at 30° C. for 15 minutes. The enzymatic reactions were initiated by adding the substrate to a final concentration of 20 μM, and mixing 10 times with a pipette. The final DMSO concentration in the assay was 6.0%.
Plots of the inhibitor concentration vs. the percent inhibition were fit to the following equation: y=(a−d)/[^1+(x/c)^b]+d, a general sigmoidal curve with Hill slope, a to d. x is the inhibitor concentration under test. y is the percent inhibition. a is the limiting response as x approaches zero. As x increases without bound, y tends toward its limit d. c is the inflection point (IC50) for the curve. That is, y is halfway between the lower and upper asymptotes when x=c. b is the slope factor or Hill coefficient.

[5] = Table 2, nM printed in one cell only
[6] = Table 1, first of two columns headed bovine
[7] = Table 1, second of two columns headed bovine

IC50 ([1]; Table 2)	IC50 ([2]; Table 2)	IC50 [3, 5]	IC50 ([1]; Table 1)	IC50 ([2]; Table 1)	IC50 ([3]; Table 1, unit inferred)	IC50 (recombinant human MMP-2)	SMILES	bovine [4, 6]	bovine [4, 7]
< 30 nM	217 nM	~100000 nM					COc1cccc(-c2ccc(C(=O)N[C@@H](CCC(=O)O)C(=O)NC(C)(C)Cc3ccccc3)cc2)c1 [Example 17I, N-(1,1-dimethyl-2-phenylethyl)-N^2-[(3′-methoxybiphenyl-4-yl)carbonyl]-L-α-glutamine]		
40 nM	42 nM	11200 nM					COc1cc(CNC(=O)C(CCC(=O)O)NC(=O)c2ccc(-c3ccc4c(c3)OCO4)cc2)cc(OC)c1OC (stereo not shown) [Example 17N, 4-(4-Benzo[1,3]dioxol-5-yl-benzoylamino)-4-(3,4,5-trimethoxy-benzylcarbamoyl)-butyric acid]		
73 nM	142 nM	6000 nM					COc1cc(CNC(=O)[C@H](CCC(=O)O)NC(=O)c2ccc(-c3ccc(C)c(F)c3)cc2)cc(OC)c1OC [Example 17R, N^2-[(3′-fluoro-4′-methylbiphenyl-4-yl)carbonyl]-N-(3,4,5-trimethoxybenzyl)-L-α-glutamine]		
49 nM	50 nM	~1600 nM					COc1cc(COc2ccc(-c3ccc(C(=O)N[C@@H](CCC(=O)O)C(=O)NCc4cc(OC)c(OC)c(OC)c4)cc3)cc2)cc(OC)c1 [Example 18, N^2-({4′-[(3,5-dimethoxybenzyl)oxy]biphenyl-4-yl}carbonyl)-N-(3,4,5-trimethoxybenzyl)-L-α-glutamine]		

Second part, the compound before the results:

SMILES	IC50 ([1]; Table 2)	IC50 ([2]; Table 2)	IC50 [3, 5]	IC50 ([1]; Table 1)	IC50 ([2]; Table 1)	IC50 ([3]; Table 1, unit inferred)	IC50 (recombinant human MMP-2)	bovine [4, 6]	bovine [4, 7]
CCCNC(=O)[C@H](CCC(=O)O)NC(=O)c1ccc2c(c1)Cc1ccccc1-2 [Example 8FFFFF, N^2-(9H-fluoren-2-ylcarbonyl)-N^1-propyl-L-α-glutamine]	92 nM	710 nM	> 100000 nM						
O=C(O)CC[C@H](NC(=O)c1ccc(-c2ccccc2)cc1)C(=O)NCc1ccc(I)cc1 [Example 8LL, N^2-(1,1′-biphenyl-4-ylcarbonyl)-N^1-(4-iodobenzyl)-L-α-glutamine]				55 nM	990 nM	24000 nM	50000 nM	40%	0%
CC(C)(C)NC(=O)[C@H](CCC(=O)O)NC(=O)c1ccc(-c2ccccc2)cc1 [Example 8SSS, N^2-(biphenyl-4-ylcarbonyl)-N^1-(tert-butyl)-L-α-glutamine]				64 nM	470 nM	> 50000 nM	10300 nM		
O=C(O)CC[C@H](NC(=O)c1ccc(-c2ccccc2)cc1)C(=O)NCc1cccc(OC(F)(F)F)c1 [Example 8U, N^2-(1,1′-biphenyl-4-ylcarbonyl)-N^1-[3-(trifluoromethoxy)benzyl]-L-α-glutamine]				200 nM				63%	26%
O=C(O)CC[C@H](NC(=O)c1ccc(-c2ccccc2)cc1)C(=O)NC1c2ccccc2-c2ccccc21 [Example 8YYYYY, N^2-(biphenyl-4-ylcarbonyl)-N^1-9H-fluoren-9-yl-L-α-glutamine]	87 nM	2800 nM	~20000 nM						
CC(C)(Cc1ccc(F)cc1)NC(=O)[C@H](CCC(=O)O)NC(=O)c1ccc2c(c1)Cc1ccccc1-2 [Example 8ZZZZZ, N^2-(9H-fluoren-2-ylcarbonyl)-N^1-[2-(4-fluorophenyl)-1,1-dimethylethyl]-L-α-glutamine]	< 30 nM	63 nM	> 100000 nM						
